{"source": "ChEMBL document CHEMBL5223185", "about": "“Squaramide Tethered Clindamycin, Chloroquine, and Mortiamide Hybrids: Design, Synthesis, and Antimalarial Activity” (ACS Med Chem Lett, 2023)", "key": {"Plasmodium falciparum [1]": {"tested_on": "Plasmodium falciparum", "experiment": "Antiplasmodial activity against sorbitol-synchronized post ring stage plasmodium falciparum 3D7 assessed as inhibition of parasite growth incubated for 72 to 96 hrs by parasite susceptibility based microplate reader assay", "type": "functional, organism-based"}, "Plasmodium falciparum [2]": {"tested_on": "Plasmodium falciparum", "experiment": "Antiplasmodial activity against sorbitol-synchronized post ring stage chloroquine, mefloquine and pyrimethamine resistant plasmodium falciparum Dd2 assessed as inhibition of parasite growth incubated for 72 to 96 hrs by parasite susceptibility based microplate reader assay", "type": "functional, organism-based"}, "[3]": {"experiment": "Fold resistance,ratio of IC50 for antiplasmodial activity against chloroquine, mefloquine and pyrimethamine resistant plasmodium falciparum Dd2 to IC50 for antiplasmodial activity against plasmodium falciparum 3D7", "type": "functional"}, "[4]": {"experiment": "Hemolytic activity in human RBC assessed as hemolysis at 0.39 to 12.8 uM incubated for 72 hrs by microplate reader assay", "type": "toxicity, cell-based", "settings": "erythrocyte, dose 0.39-12.8 µM"}}, "note": "Square brackets hold non-standard residues; d marks the D form. Peptide text beside a SMILES is read from it.", "data": [{"compound": "CC[C@@H](C)[C@H]1NC(=O)[C@@H](C)NC(=O)[C@H](Cc2ccccc2)NC(=O)[C@@H](CC(C)C)NC(=O)[C@@H](C(C)C)NC(=O)[C@H](Cc2ccccc2)NC(=O)[C@@H]([C@H](C)CC)NC1=O", "note": "(cyclo(F[dA][dI][dI]F[dV][dL]))", "values": [{"measurement": "IC50", "setting": "Plasmodium falciparum [1]", "result": 1310, "unit": "nM"}, {"measurement": "IC50", "setting": "Plasmodium falciparum [2]", "result": 940, "unit": "nM"}, {"measurement": "Ratio", "setting": "[3]", "result": 0.7}]}, {"compound": "CCOc1c(NCCN(CC)CCCC(C)Nc2ccnc3cc(Cl)ccc23)c(=O)c1=O", "note": "(configuration not stated)", "values": [{"measurement": "Activity", "setting": "[4]", "result": "Non-Toxic"}, {"measurement": "IC50", "setting": "Plasmodium falciparum [1]", "result": 63.8, "unit": "nM"}, {"measurement": "IC50", "setting": "Plasmodium falciparum [2]", "result": 1060, "unit": "nM"}, {"measurement": "Ratio", "setting": "[3]", "result": 16.6}]}, {"compound": "CCN(CCCC(C)Nc1ccnc2cc(Cl)ccc12)CCN=[N+]=[N-]", "note": "(configuration not stated)", "values": [{"measurement": "Activity", "setting": "[4]", "result": "Non-Toxic"}, {"measurement": "IC50", "setting": "Plasmodium falciparum [1]", "result": 2.8, "unit": "nM"}, {"measurement": "IC50", "setting": "Plasmodium falciparum [2]", "result": 18, "unit": "nM"}, {"measurement": "Ratio", "setting": "[3]", "result": 6.5}]}, {"compound": "CCC[C@@H]1C[C@@H](C(=O)N[C@@H]([C@H]2O[C@H](SC)[C@H](O)[C@@H](O)[C@H]2O)[C@@H](C)N=[N+]=[N-])N(C)C1", "values": [{"measurement": "Activity", "setting": "[4]", "result": "Non-Toxic"}, {"measurement": "IC50", "setting": "Plasmodium falciparum [1]", "result": 29.4, "unit": "nM"}, {"measurement": "IC50", "setting": "Plasmodium falciparum [2]", "result": 28.6, "unit": "nM"}, {"measurement": "Ratio", "setting": "[3]", "result": 1}]}, {"compound": "CCC[C@@H]1C[C@@H](C(=O)N[C@@H]([C@H]2O[C@H](SC)[C@H](O)[C@@H](O)[C@H]2O)[C@H](C)Cl)N(C)C1", "note": "[CLINDAMYCIN]", "values": [{"measurement": "IC50", "setting": "Plasmodium falciparum [1]", "result": 8.81, "unit": "nM"}]}, {"compound": "CCN(CCN)CCCC(C)Nc1ccnc2cc(Cl)ccc12", "note": "(configuration not stated)", "values": [{"measurement": "Activity", "setting": "[4]", "result": "Non-Toxic"}, {"measurement": "IC50", "setting": "Plasmodium falciparum [1]", "result": 16.7, "unit": "nM"}, {"measurement": "IC50", "setting": "Plasmodium falciparum [2]", "result": 285, "unit": "nM"}, {"measurement": "Ratio", "setting": "[3]", "result": 17.1}]}, {"compound": "CCC[C@@H]1CC(C(=O)N[C@@H](C2O[C@H](SC)[C@H](O)[C@@H](O)[C@H]2O)[C@@H](C)Nc2c(NCCN(CC)CCCC(C)Nc3ccnc4cc(Cl)ccc34)c(=O)c2=O)N(C)C1", "note": "(some centres not stated)", "values": [{"measurement": "Activity", "setting": "[4]", "result": "Non-Toxic"}, {"measurement": "IC50", "setting": "Plasmodium falciparum [1]", "result": 129, "unit": "nM"}, {"measurement": "IC50", "setting": "Plasmodium falciparum [2]", "result": 1010, "unit": "nM"}, {"measurement": "Ratio", "setting": "[3]", "result": 7.8}]}, {"compound": "CCN(CCCC(C)Nc1ccnc2cc(Cl)ccc12)CCNc1c(NCCN(CC)CCCC(C)Nc2ccnc3cc(Cl)ccc23)c(=O)c1=O", "note": "(configuration not stated)", "values": [{"measurement": "Activity", "setting": "[4]", "result": "Non-Toxic"}, {"measurement": "IC50", "setting": "Plasmodium falciparum [1]", "result": 31.3, "unit": "nM"}, {"measurement": "IC50", "setting": "Plasmodium falciparum [2]", "result": 80.9, "unit": "nM"}, {"measurement": "Ratio", "setting": "[3]", "result": 2.6}]}, {"compound": "CCN(CCCC(C)Nc1ccnc2cc(Cl)ccc12)CCNc1c(NCCCC[C@H](NC(C)=O)C(=O)OC)c(=O)c1=O", "note": "(some centres not stated)", "values": [{"measurement": "Activity", "setting": "[4]", "result": "Non-Toxic"}, {"measurement": "IC50", "setting": "Plasmodium falciparum [1]", "result": 223, "unit": "nM"}, {"measurement": "IC50", "setting": "Plasmodium falciparum [2]", "result": 680, "unit": "nM"}, {"measurement": "Ratio", "setting": "[3]", "result": 3}]}]}
